Measured values taken from the supplement of paper PMC10307832.

Columns and labels:
Experiment in all cases: relative viability (nuclei count vs DMSO), 5 days (fraction); higher = more cells survive
HCC-44 = test system: HCC-44
In short: (§1)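 Each reported value is a median over duplicate plates. It expresses relative viability: treated-well nuclei count divided by vehicle-well nuclei count. Lung cancer cell lines in 1536-well plates were dosed by pin tool a day after seeding, alone with one drug or with a fixed anchor-drug dose plus five library-drug doses (not always all listed) in √10 steps, and nuclei were counted after 5 days.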

NCI-H1975 = test system: NCI-H1975
In short: as §1

LOU-NH91 = test system: LOU-NH91
In short: as §1

NCI-H1755 = test system: NCI-H1755
In short: as §1

LU99A = test system: LU99A
In short: as §1

NCI-H460 = test system: NCI-H460
In short: as §1

NCI-H1563 = test system: NCI-H1563
In short: as §1

NCI-H1437 = test system: NCI-H1437
In short: as §1

HCC-366 = test system: HCC-366
In short: as §1

BEN = test system: BEN
In short: as §1

NCI-H1734 = test system: NCI-H1734
In short: as §1

NCI-H441 = test system: NCI-H441
In short: as §1

NCI-H358 = test system: NCI-H358
In short: as §1

NCI-H838 = test system: NCI-H838
In short: as §1

NCI-H2023 = test system: NCI-H2023
In short: as §1

NCI-H1651 = test system: NCI-H1651
In short: as §1

EKVX = test system: EKVX
In short: as §1

CAL-12T = test system: CAL-12T
In short: as §1

NCI-H2085 = test system: NCI-H2085
In short: as §1

NCI-H1355 = test system: NCI-H1355
In short: as §1

NCI-H1650 = test system: NCI-H1650
In short: as §1

O=C(O)c1ccc(-c2c[nH]c3ncc(-c4ccccc4)cc23)cc1C1CCCC1 + C[C@@H](Oc1cc(-c2cnn(C3CCNCC3)c2)cnc1N)c1c(Cl)ccc(F)c1Cl [Crizotinib] (partner 1 µM)
relative viability (HCC-44; first compound 0.04 µM): 0.764
relative viability (HCC-44; first compound 0.1265 µM): 0.823
relative viability (HCC-44; first compound 0.4 µM): 0.812
relative viability (HCC-44; first compound 1.265 µM): 0.577
relative viability (NCI-H1975; first compound 0.04 µM): 0.999
relative viability (NCI-H1975; first compound 0.1265 µM): 1.04
relative viability (NCI-H1975; first compound 0.4 µM): 0.923
relative viability (NCI-H1975; first compound 1.265 µM): 0.767
relative viability (LOU-NH91; first compound 0.04 µM): 0.725
relative viability (LOU-NH91; first compound 0.1265 µM): 0.771
relative viability (LOU-NH91; first compound 0.4 µM): 0.702
relative viability (LOU-NH91; first compound 1.265 µM): 0.782
relative viability (NCI-H1755; first compound 0.04 µM): 0.883
relative viability (NCI-H1755; first compound 0.1265 µM): 0.924
relative viability (NCI-H1755; first compound 0.4 µM): 0.897
relative viability (NCI-H1755; first compound 1.265 µM): 0.839
relative viability (LU99A; first compound 0.04 µM): 0.539
relative viability (LU99A; first compound 0.1265 µM): 0.678
relative viability (LU99A; first compound 0.4 µM): 0.503
relative viability (LU99A; first compound 1.265 µM): 0.486
relative viability (NCI-H460; first compound 0.04 µM): 0.872
relative viability (NCI-H460; first compound 0.1265 µM): 1.06
relative viability (NCI-H460; first compound 0.4 µM): 0.83
relative viability (NCI-H460; first compound 1.265 µM): 0.864
relative viability (NCI-H1563; first compound 0.04 µM): 0.787
relative viability (NCI-H1563; first compound 0.1265 µM): 0.91
relative viability (NCI-H1563; first compound 0.4 µM): 0.851
relative viability (NCI-H1563; first compound 1.265 µM): 0.875
relative viability (NCI-H1437; first compound 0.04 µM): 1.03
relative viability (NCI-H1437; first compound 0.1265 µM): 0.959
relative viability (NCI-H1437; first compound 0.4 µM): 0.874
relative viability (NCI-H1437; first compound 1.265 µM): 0.839
relative viability (HCC-366; first compound 0.04 µM): 0.502
relative viability (HCC-366; first compound 0.1265 µM): 0.686
relative viability (HCC-366; first compound 0.4 µM): 0.619
relative viability (HCC-366; first compound 1.265 µM): 0.696
relative viability (BEN; first compound 0.04 µM): 0.89
relative viability (BEN; first compound 0.1265 µM): 0.996
relative viability (BEN; first compound 0.4 µM): 0.885
relative viability (BEN; first compound 1.265 µM): 0.774
relative viability (NCI-H1734; first compound 0.04 µM): 0.752
relative viability (NCI-H1734; first compound 0.1265 µM): 0.705
relative viability (NCI-H1734; first compound 0.4 µM): 0.601
relative viability (NCI-H1734; first compound 1.265 µM): 0.543
relative viability (NCI-H441; first compound 0.04 µM): 0.601
relative viability (NCI-H441; first compound 0.1265 µM): 0.907
relative viability (NCI-H441; first compound 0.4 µM): 0.689
relative viability (NCI-H441; first compound 1.265 µM): 0.525
relative viability (NCI-H358; first compound 0.04 µM): 0.633
relative viability (NCI-H358; first compound 0.1265 µM): 0.579
relative viability (NCI-H358; first compound 0.4 µM): 0.512
relative viability (NCI-H358; first compound 1.265 µM): 0.352
relative viability (NCI-H838; first compound 0.04 µM): 0.794
relative viability (NCI-H838; first compound 0.1265 µM): 0.952
relative viability (NCI-H838; first compound 0.4 µM): 0.848
relative viability (NCI-H838; first compound 1.265 µM): 0.88
relative viability (NCI-H2023; first compound 0.04 µM): 0.639
relative viability (NCI-H2023; first compound 0.1265 µM): 0.669
relative viability (NCI-H2023; first compound 0.4 µM): 0.572
relative viability (NCI-H2023; first compound 1.265 µM): 0.603
relative viability (NCI-H1651; first compound 0.04 µM): 0.852
relative viability (NCI-H1651; first compound 0.1265 µM): 0.929
relative viability (NCI-H1651; first compound 0.4 µM): 0.822
relative viability (NCI-H1651; first compound 1.265 µM): 0.742
relative viability (EKVX; first compound 0.04 µM): 1.13
relative viability (EKVX; first compound 0.1265 µM): 0.891
relative viability (EKVX; first compound 0.4 µM): 0.927
relative viability (EKVX; first compound 1.265 µM): 0.676
relative viability (CAL-12T; first compound 0.04 µM): 0.633
relative viability (CAL-12T; first compound 0.1265 µM): 0.755
relative viability (CAL-12T; first compound 0.4 µM): 0.701
relative viability (CAL-12T; first compound 1.265 µM): 0.528
relative viability (NCI-H2085; first compound 0.04 µM): 0.832
relative viability (NCI-H2085; first compound 0.1265 µM): 0.804
relative viability (NCI-H2085; first compound 0.4 µM): 0.878
relative viability (NCI-H2085; first compound 1.265 µM): 0.696
relative viability (NCI-H1355; first compound 0.04 µM): 1.05
relative viability (NCI-H1355; first compound 0.1265 µM): 1.14
relative viability (NCI-H1355; first compound 0.4 µM): 1.04
relative viability (NCI-H1355; first compound 1.265 µM): 0.752
relative viability (NCI-H1650; first compound 0.04 µM): 1.02
relative viability (NCI-H1650; first compound 0.1265 µM): 0.996
relative viability (NCI-H1650; first compound 0.4 µM): 0.917
relative viability (NCI-H1650; first compound 1.265 µM): 0.743
